PubChem BioAssay AID651986 (The Scripps Research Institute Molecular Screening Center, 2013)
The source made the active and inactive calls. How the calls were made is not given here.

Columns and labels:
Test in all cases: in situ LYPLA1 and LYPLA2 inhibition, late-stage follow-up, gel-based ABPP, fluorescence, HEK293T, murine T cells (AID 651986)
[1] = tested on: LYPLA2 murine T cells; conditions: HEK293T or murine T cells, NHU5 gel-based ABPP, at 5 µM, stronger effect = higher value
[2] = biological target: Acyl-protein thioesterase 1 (Homo sapiens) (UniProt O75608); conditions: HEK293T or murine T cells, NHU5 gel-based ABPP, LYPLA1 HEK293T cells, at 5 µM, stronger effect = higher value
Chain of Acyl-protein thioesterase 1 (Homo sapiens) (O75608 whole entry, looked up): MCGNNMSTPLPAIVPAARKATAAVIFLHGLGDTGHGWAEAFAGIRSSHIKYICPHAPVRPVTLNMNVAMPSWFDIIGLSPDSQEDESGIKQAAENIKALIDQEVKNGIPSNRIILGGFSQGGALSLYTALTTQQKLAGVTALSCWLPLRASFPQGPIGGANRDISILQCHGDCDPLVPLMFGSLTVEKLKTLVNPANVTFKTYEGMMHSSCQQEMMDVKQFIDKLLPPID

[3] = tested on: LYPLA1 murine T cells; conditions: HEK293T or murine T cells, NHU5 gel-based ABPP, at 5 µM, stronger effect = higher value
[4] = biological target: Acyl-protein thioesterase 2 (Homo sapiens) (UniProt O95372); conditions: HEK293T or murine T cells, NHU5 gel-based ABPP, LYPLA2 HEK293T cells, at 5 µM, stronger effect = higher value
Chain of Acyl-protein thioesterase 2 (Homo sapiens) (O95372 whole entry, looked up): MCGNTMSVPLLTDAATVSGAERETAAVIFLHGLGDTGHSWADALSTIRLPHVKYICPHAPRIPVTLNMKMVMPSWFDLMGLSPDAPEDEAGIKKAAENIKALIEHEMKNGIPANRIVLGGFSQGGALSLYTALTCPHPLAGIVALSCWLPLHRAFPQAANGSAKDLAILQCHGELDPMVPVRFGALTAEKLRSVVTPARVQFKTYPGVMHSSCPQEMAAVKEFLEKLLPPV

Q: For `COc1ccc(N2CCN(C(=O)c3cc4c(s3)-c3ccccc3S(=O)(=O)C4)CC2)cc1`, which inhibition [1] is on record?
A: 100%

Q: What about the inhibition [2] of the same compound?
A: 0% (inactive)

Q: What about the inhibition [3] of the same compound?
A: 0% (inactive)

Q: And the inhibition [4]?
A: 100%

Q: Which results are given for `O=C(CN1CCN(C(=O)c2ccco2)CC1)Nc1cc(C(F)(F)F)ccc1Cl`?
A: inhibition [1]: 0% (inactive); inhibition [2]: 100%; inhibition [3]: 100%; inhibition [4]: 0% (inactive)
